# Marks after values point to notes of the source that are not given here.
# What was measured:
# Th17/IL-17 pathway = conditions: skin biopsies stimulated with cytokine cocktail 48 hrs; cited from earlier work
# [1] = tested on: oxazolone-induced ear swelling; assay: Oxazolone-induced ear swelling assay in BALB/c mice; assay type: in vivo
# Method: Groups of 5 BALB/c male mice weighing 22±2 g were used. The animals were sensitized by application of oxazolone (100 μL, 1.5% in acetone) to their preshaved abdominal surface. Seven days later, test substances (20 mg/ear) and vehicle (20 μL/ear) were applied topically to the anterior and posterior surfaces of the right ear 30 min before and 15 min after oxazolone (1%, 20 μL/ear) challenge. Ear swelling was measured with a Dyer model micrometer gauge at 24 hours after oxazolone challenge as an index of inflammation. Ear edema was calculated by subtracting the thickness of the left ear (normal control) from the right ear (treated ear). Percent inhibition was calculated according to the formula: (Ic −It)/Ic×100, where Ic and It refers to increase of ear thickness (mm) in control and treated mice, respectively. One-way ANOVA and Dunnett's test were used to determine statistical significance between vehicle control and treated groups. Significance is set at P<0.05.
# Test substances and vehicles were each administered topically (TOP) at 30 minutes before and 15 minutes after challenge with the second application of oxazolone.
# The test system used was a 7-day oxazolone-induced ear swelling assay. […] Ear swelling was measured with a Dyer model micrometer gauge at 24 hours after oxazolone challenge as an index of inflammation. Ear edema was calculated by subtracting the thickness of the left ear (normal control) from the right ear (treated ear) (Table 9). […] Percent inhibition was calculated according to the formula: (Ic−It)/Ic×100, where Ic and It refer to increase of ear thickness (mm) in control and treated mice, respectively. […]
# BALB/c mice are sensitized with oxazolone exposure to the abdomen and are subsequently challenged (7 days post-sensitization) with oxazolone application to the right ear. […] The effect of anti-inflammatory test articles is then assessed by measuring the amount of ear swelling, which is reported as a percentage in comparison to the study vehicle. […]
Compound,IL-17 secretion (Th17/IL-17 pathway),"Ear Swelling % Inhibition (vs. Vehicle A) ([1]; Example 2 study, TOP x 2 (30 min before, 15 min after oxazolone challenge), 24 hours, vs acetone/ethanol 1/1)","% inhibition of oxazolone-induced ear swelling vs ethanol/acetone ([1]; Example 4 study, TOP x 2, 24 hours) [%]","Net Swelling on Right Ear (Mean ± SEM, ×0.01 mm) ([1]; Example 4 study, TOP x 2, 24 hours after oxazolone challenge) [×0.01 mm]"
C=C1/C(=C\C=C2/CCC[C@]3(C)[C@@H]([C@H](C)/C=C/[C@@H](O)C4CC4)CC[C@@H]23)C[C@@H](O)C[C@@H]1O [calcipotriol],partial inhibition of IL-17 secretion,,,
C[C@@H]1C[C@H]2[C@@H]3CCC4=CC(=O)C=C[C@]4(C)[C@@]3(F)[C@@H](O)C[C@]2(C)[C@@]1(O)C(=O)CO [Dexamethasone],,85* %,86,3.2 ± 0.4

# From patent US10912743B2, “Compositions for treating inflammation and methods of treating the same” (Novan, Inc., priority 2016, dated 2021)
